Reference: ChEMBL document CHEMBL1154453, “Synthesis and aldose reductase inhibitory activity of some new chromonyl-2,4-thiazolidinediones” (Eur J Med Chem, 2008)

Legend:
[1] = target: Aldo-keto reductase family 1 member B1 (Rattus norvegicus) (UniProt P07943); test: (§1) Inhibition of aldose reductase in Albino rat kidney assessed as decrease in NADPH concentration by spectrophotometrically
[2] = target: Aldo-keto reductase family 1 member B1 (Rattus norvegicus, UniProt P07943); test: as §1

Row | SMILES | inhibition [1] [%] | IC50 [2] [nM]
1 | Cc1cc(C)c2occ(/C=C3/SC(=O)NC3=O)c(=O)c2c1 | 49.7 | 
2 | O=C(O)CN1C(=O)S/C(=C/c2coc3ccccc3c2=O)C1=O | 49.4 | 
3 | CCOC(=O)CN1C(=O)S/C(=C/c2coc3ccc(C)cc3c2=O)C1=O | 0 | 
4 | O=C(O)CN1C(=O)S/C(=C/c2coc3ccc([N+](=O)[O-])cc3c2=O)C1=O | 82.4 | 261
5 | CC(C)c1ccc2occ(/C=C3/SC(=O)NC3=O)c(=O)c2c1 | 50.8 | 955
6 | O=C1NC(=O)/C(=C\c2coc3ccccc3c2=O)S1 | 42.4 | 
7 | Cc1ccc2occ(/C=C3/SC(=O)N(CC(=O)O)C3=O)c(=O)c2c1 | 61.2 | 805
8 | O=C1NC(=O)/C(=C\c2coc3ccc([N+](=O)[O-])cc3c2=O)S1 | 46.7 | 
9 | CCOC(=O)CN1C(=O)S/C(=C/c2coc3c(C)cc(C)cc3c2=O)C1=O | 0 | 
10 | CCOC(=O)CN1C(=O)S/C(=C/c2coc3ccccc3c2=O)C1=O | 8.18 | 
11 | Cc1cc(C)c2occ(/C=C3/SC(=O)N(CC(=O)O)C3=O)c(=O)c2c1 | 68.6 | 678
12 | Cc1ccc2occ(/C=C3/SC(=O)NC3=O)c(=O)c2c1 | 52.7 | 944
13 | CCOC(=O)CN1C(=O)S/C(=C/c2coc3ccc(C(C)C)cc3c2=O)C1=O | 9.46 | 
14 | CC(C)c1ccc2occ(/C=C3/SC(=O)N(CC(=O)O)C3=O)c(=O)c2c1 | 77.3 | 522
